Key:
[1] = system: gerbils; test: Gerbil foot-tapping (CNS penetration) assay; type: in vivo, Mongolian gerbil (Meriones unguiculatus); conditions: for gerbil foot-tapping (5 mins.) ID50 / gerbil foot-tapping (24 hrs.) ID50: i.v.; for gerbil foot-tapping (5 mins.) ID50: 5 mins. before central NK-1 agonist challenge; for gerbil foot-tapping (24 hrs.) ID50: 24 hrs. before central NK-1 agonist challenge
Source text: ASSAY 3: Gerbil Foot-tapping (CNS Penetration) Assay
CNS-penetrant NK-1 receptor antagonists for use in the present invention can be identified by their ability to inhibit foot tapping in gerbils induced by anxiogenic agents (such as pentagastrin) or central infusion of NK-1 receptor agonists such as GR73632, or caused by aversive stimulation such as foot shock or single housing, based on the method of Rupniak & Williams, Eur. J. Pharmacol., 1994, 265, 179.
Male or female Mongolian gerbils (35-70 g) are anaesthetised by inhalation of an isoflurane/oxygen mixture to permit exposure of the jugular vein in order to permit administration of test compounds or vehicle in an injection volume of approximately 5 ml/kg i.v. Alternatively, test compounds may be administered orally or by subcutaneous or intraperitoneal routes. A skin incision is then made in the midline of the scalp to expose the skull.

[2] = system: ferrets; test: Ferret emesis (cisplatin-induced); type: in vivo; conditions: p.o., 60 minutes before cisplatin 10 mg/kg i.v.
Source text: ASSAY 4: Ferret Emesis […]

[3] = system: guinea-pig pups; test: Separation-induced vocalisation in guinea-pig pups; type: in vivo; conditions: for attenuation of separation-induced vocalisations compared with baseline: 30 minutes before isolation
Source text: ASSAY 2: Separation-induced Vocalisation
Male and female guinea-pigs pups are housed in family groups with their mothers and littermates throughout the study. Experiments are commenced after weaning when the pups are at least 2 weeks old. Before entering an experiment, the pups may be screened to ensure that a vigorous vocalisation response is reproducibly elicited following maternal separation. The pups are placed individually in an observation cage (approximately 55 cm×39 cm×19 cm) in a room physically isolated from the home cage for approximately 15 minutes and the duration and/or number of vocalisation during this baseline period is recorded. […] The duration and/or number of vocalisation on drug treatment days may be expressed as a percentage of the pre-treatment baseline value for each animal or compared with values obtained in vehicle-treated animals. The same subjects may be retested once weekly for up to 6 weeks.

In the case of `C[C@@H](O[C@H]1OCCN(Cc2n[nH]c(=O)[nH]2)[C@H]1c1ccc(F)cc1)c1cc(C(F)(F)F)cc(C(F)(F)F)c1` [2-(R)-(1-(R)-(3,5-bis(trifluoromethyl)phenyl)ethoxy)-3-(S)-(4-fluorophenyl)-4-(3-(5-oxo-1H,4H-1,2,4-triazolo)methyl)morpholine], the “gerbil foot-tapping (5 mins.) ID50” value [1] is reported as “ID50 = 0.36 mg/kg i.v”, the “gerbil foot-tapping (24 hrs.) ID50” value [1] is reported as “ID50 = 0.33 mg/kg i.v” and the “ID90 in the ferret emesis assay” value [2] is reported as less than 3 mg/kg p.o. For the same compound, the “guinea-pig vocalisation ID50” value ([3]; p.o., 4 hrs. pretreatment) was “ID50 = 0.73 mg/kg p.o”.

In the case of `C[C@@H](O[C@H]1OCCN(Cc2nn[nH]c2CN(C)C)[C@H]1c1ccccc1)c1cc(C(F)(F)F)cc(C(F)(F)F)c1` [Test Compound A, 2-(R)-(1-(R)-(3,5-bis(trifluoromethyl)phenyl)ethoxy)-4-(5-(dimethylamino)methyl-1,2,3-triazol-4-yl)methyl-3-(S)-phenylmorpholine], the “gerbil foot-tapping (5 mins.) ID50” value [1] is reported as “ID50 = 0.12 mg/kg i.v”, the “gerbil foot-tapping (24 hrs.) ID50” value [1] is reported as “ID50 = 0.17 mg/kg i.v” and the “attenuation of separation-induced vocalisations compared with baseline” value (shortened to “attenuation … compared with baseline”) ([3]; 0.25 mg/kg s.c. alone) is reported as “approximately 25%”. For the same compound, the “guinea-pig vocalisation ID50” value ([3]; s.c.) was “ID50 = 0.5 mg/kg s.c”.

In the case of `C[C@@H](O[C@@H]1OCCN(Cc2nn[nH]c2CN(C)C)[C@@H]1c1ccccc1)c1cc(C(F)(F)F)cc(C(F)(F)F)c1` [Test Compound B, 2-(S)-(1-(R)-(3,5-bis(trifluoromethyl)phenyl)ethoxy)-4-(5-(dimethylamino)methyl-1,2,3-triazol-4-yl)methyl-3-(R)-phenylmorpholine], the “attenuation of separation-induced vocalisations when administered alone” value ([3]; 0.25 mg/kg s.c. alone) is reported as “failure”, the “potentiation of the inhibitory effect of buspirone on separation-induced vocalisations” value ([3]; 0.25 mg/kg s.c. with buspirone 0.25 mg/kg s.c.) is reported as “failure” and the “potentiation of the inhibitory effect of fluoxetine on separation-induced vocalisations” value ([3]; 0.25 mg/kg s.c. with fluoxetine 2 mg/kg i.p.) is reported as “failure”.

`O=C1CC2(CCCC2)CC(=O)N1CCCCN1CCN(c2ncccn2)CC1` [buspirone, reference compound] was tested, and the “attenuation … compared with baseline” value ([3]; 0.25 mg/kg s.c. alone) was “approximately 25%” and the “guinea-pig vocalisation ID50” value ([3]; s.c.) was 0.5 mg/kg s.c.

With `CN1C(=O)CN=C(c2ccccc2)c2cc(Cl)ccc21` [diazepam, reference compound] the “guinea-pig vocalisation ID50” value ([3]; s.c.) was 0.7 mg/kg s.c.

In the case of `CNCCC(Oc1ccc(C(F)(F)F)cc1)c1ccccc1` (stereo not drawn) [fluoxetine, reference compound], the “attenuation … compared with baseline” value ([3]; 2 mg/kg i.p. alone) is reported as “approximately 25%” and the “guinea-pig vocalisation ID50” value ([3]; i.p.) is reported as 2.7 mg/kg i.p.

For `CN(C)CCCN1c2ccccc2CCc2ccccc21` [imipramine, reference compound], the “foot-tapping ID50” value ([1]; s.c., foot-tapping induced by substance P) was 3.8 mg/kg s.c and the “guinea-pig vocalisation ID50” value ([3]; s.c.) was 5.4 mg/kg s.c.
